The results in this text go back to patent publication US7074789B2, “Kinase inhibitors” (Amgen Inc., priority 1999, dated 2006).

What all share (assay type): biochemical
One test addresses T1, AKT (Homo sapiens, UniProt Q9Y243).
T1 construct: Kinases are expressed as either kinase domains or full length constructs; made in house
The experiment in a line: Kinase inhibition assay (33P transfer), AKT. The following applies: Table 2, kinase inhibition class; read-out: AKT3-1. In a few lines: (§1)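 Kinase domain or full-length constructs, GST- or polyHis-tagged, expressed in E. coli or baculovirus-High Five cells, sometimes with regulatory polypeptides. Activity measured as 33PO4 transfer from ATP to plate-bound poly(Glu,Tyr) 4:1 or poly(Arg,Ser) 3:1; after incubation, plates washed with 0.5% phosphoric acid and counted by liquid scintillation.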

Another test has as its target T2, Ret-1 (Homo sapiens, UniProt P07949).
T2 construct: Kinases are expressed as either kinase domains or full length constructs; made in house
As to the kind of experiment: Kinase inhibition assay (33P transfer), Ret. As to conditions: Table 6, Ret-1 kinase inhibition class.

In the next test the target is T3, Src (Homo sapiens, UniProt P12931).
T3 construct: Kinases are expressed as either kinase domains or full length constructs; made in house
The experiment in a line: Kinase inhibition assay (33P transfer), Src. The following applies: Table 6, Src-1 kinase inhibition class. An outline of the steps:
(§2)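 Steps: coat wells with poly(Glu,Tyr) 4:1 or poly(Arg,Ser) 3:1; add purified kinase, [33P]ATP and inhibitor; incubate; wash with 0.5% phosphoric acid; add liquid scintillant; count. IC50 corresponds to half-maximal reduction of bound 33P.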

In the next test the target is T4, Kdr (Homo sapiens, UniProt P35968).
T4 construct: Kinases are expressed as either kinase domains or full length constructs; made in house
T4 sequence (P35968 20-1356, species assumed): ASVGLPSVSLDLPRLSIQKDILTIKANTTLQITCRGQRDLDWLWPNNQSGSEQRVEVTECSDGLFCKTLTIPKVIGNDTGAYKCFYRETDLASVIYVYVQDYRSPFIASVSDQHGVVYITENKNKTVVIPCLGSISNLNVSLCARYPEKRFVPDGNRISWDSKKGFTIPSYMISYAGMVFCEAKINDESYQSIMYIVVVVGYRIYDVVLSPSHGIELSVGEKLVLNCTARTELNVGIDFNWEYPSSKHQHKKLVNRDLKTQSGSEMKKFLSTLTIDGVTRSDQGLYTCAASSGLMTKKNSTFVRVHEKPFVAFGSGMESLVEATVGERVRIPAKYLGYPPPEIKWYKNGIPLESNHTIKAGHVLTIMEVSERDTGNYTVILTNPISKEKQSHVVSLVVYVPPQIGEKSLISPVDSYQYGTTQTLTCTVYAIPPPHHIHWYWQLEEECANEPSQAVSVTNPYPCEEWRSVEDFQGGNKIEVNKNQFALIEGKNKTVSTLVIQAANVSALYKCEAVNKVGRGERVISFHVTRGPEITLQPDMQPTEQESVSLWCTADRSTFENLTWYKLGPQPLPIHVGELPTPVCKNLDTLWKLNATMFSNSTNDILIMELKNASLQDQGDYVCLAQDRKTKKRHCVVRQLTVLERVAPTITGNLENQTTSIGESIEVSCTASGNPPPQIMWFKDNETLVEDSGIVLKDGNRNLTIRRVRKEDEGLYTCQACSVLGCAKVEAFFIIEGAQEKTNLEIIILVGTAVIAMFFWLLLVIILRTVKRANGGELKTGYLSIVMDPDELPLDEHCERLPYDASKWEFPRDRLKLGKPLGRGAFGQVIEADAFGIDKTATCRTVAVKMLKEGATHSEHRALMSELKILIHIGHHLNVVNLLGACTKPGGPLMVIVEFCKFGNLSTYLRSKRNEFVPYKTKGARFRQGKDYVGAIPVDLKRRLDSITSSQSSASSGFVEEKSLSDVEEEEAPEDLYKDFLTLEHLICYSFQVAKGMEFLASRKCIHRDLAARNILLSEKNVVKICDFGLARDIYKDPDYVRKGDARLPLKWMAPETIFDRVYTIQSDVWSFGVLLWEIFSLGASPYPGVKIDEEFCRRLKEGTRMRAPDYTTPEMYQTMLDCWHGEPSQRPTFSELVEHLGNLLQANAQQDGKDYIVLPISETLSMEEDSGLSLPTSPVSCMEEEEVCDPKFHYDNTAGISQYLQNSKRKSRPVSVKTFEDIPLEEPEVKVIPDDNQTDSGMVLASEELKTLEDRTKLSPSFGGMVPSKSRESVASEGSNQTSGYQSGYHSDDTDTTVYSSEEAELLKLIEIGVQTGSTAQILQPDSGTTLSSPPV
The experiment in a line: Kinase inhibition assay (33P transfer), Kdr. The following applies: read-out: KDR-1. In a few lines: as §1

For another test, the target named is T5, PDGFRB (Homo sapiens, UniProt P09619).
T5 construct: Kinases are expressed as either kinase domains or full length constructs; made in house
As to the kind of experiment: Kinase inhibition assay (33P transfer), PDGFRB. As to conditions: read-out: PDGFRB-1.

The next test addresses T6, Hck-1 (Homo sapiens, UniProt P08631).
T6 construct: Kinases are expressed as either kinase domains or full length constructs; made in house
The experiment in a line: Kinase inhibition assay (33P transfer), Hck. As to conditions: Table 6, Hck-1 kinase inhibition class.

The target in the next test is T7, Lck (Homo sapiens, UniProt P06239).
T7 construct: Kinases are expressed as either kinase domains or full length constructs; made in house
As to the kind of experiment: Kinase inhibition assay (33P transfer), Lck. As to conditions: read-out: Lck-1. An outline of the steps: as §1

The next test deals with T8, Flt-1 (Homo sapiens, UniProt P17948).
T8 construct: Kinases are expressed as either kinase domains or full length constructs; made in house
The experiment in a line: Kinase inhibition assay (33P transfer), Flt-1. An outline of the steps:
as §2

The target in the next test is T9, FGFR1 (Homo sapiens, UniProt P11362).
T9 construct: Kinases are expressed as either kinase domains or full length constructs; made in house
T9 sequence (P11362 22-822, species assumed): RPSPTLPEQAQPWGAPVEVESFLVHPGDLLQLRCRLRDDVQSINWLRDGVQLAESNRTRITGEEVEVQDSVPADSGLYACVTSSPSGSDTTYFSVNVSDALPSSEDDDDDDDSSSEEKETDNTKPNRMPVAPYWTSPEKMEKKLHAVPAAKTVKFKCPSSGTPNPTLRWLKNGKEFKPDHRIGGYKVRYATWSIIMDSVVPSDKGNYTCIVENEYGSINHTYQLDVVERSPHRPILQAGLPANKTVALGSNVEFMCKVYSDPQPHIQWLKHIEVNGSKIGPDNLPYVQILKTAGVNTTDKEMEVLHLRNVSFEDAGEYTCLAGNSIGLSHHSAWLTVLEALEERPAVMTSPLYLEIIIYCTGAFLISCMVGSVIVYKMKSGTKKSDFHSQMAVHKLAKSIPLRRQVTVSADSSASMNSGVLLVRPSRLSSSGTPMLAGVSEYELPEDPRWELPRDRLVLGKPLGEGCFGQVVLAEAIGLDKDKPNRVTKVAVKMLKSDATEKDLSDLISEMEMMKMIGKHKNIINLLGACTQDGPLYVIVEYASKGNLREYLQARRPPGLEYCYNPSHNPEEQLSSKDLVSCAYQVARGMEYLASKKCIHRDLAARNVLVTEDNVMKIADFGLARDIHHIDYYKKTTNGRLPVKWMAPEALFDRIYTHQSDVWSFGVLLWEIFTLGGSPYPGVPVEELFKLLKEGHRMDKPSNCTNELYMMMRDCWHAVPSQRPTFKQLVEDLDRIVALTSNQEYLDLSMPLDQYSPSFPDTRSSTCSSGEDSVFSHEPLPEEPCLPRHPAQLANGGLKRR
As to the kind of experiment: Kinase inhibition assay (33P transfer), FGFR1. As to conditions: read-out: FGFR1-1.

Another test addresses T10, EGFR (Homo sapiens, UniProt P00533).
T10 construct: Kinases are expressed as either kinase domains or full length constructs; made in house
The experiment in a line: Kinase inhibition assay (33P transfer), EGFR. The following applies: Table 2, kinase inhibition class; read-out: EGFR-1. An outline of the steps: as §2

A further test deals with T11, c-Met (Homo sapiens, UniProt P08581).
T11 construct: Kinases are expressed as either kinase domains or full length constructs; made in house
T11 sequence (P08581 25-1390): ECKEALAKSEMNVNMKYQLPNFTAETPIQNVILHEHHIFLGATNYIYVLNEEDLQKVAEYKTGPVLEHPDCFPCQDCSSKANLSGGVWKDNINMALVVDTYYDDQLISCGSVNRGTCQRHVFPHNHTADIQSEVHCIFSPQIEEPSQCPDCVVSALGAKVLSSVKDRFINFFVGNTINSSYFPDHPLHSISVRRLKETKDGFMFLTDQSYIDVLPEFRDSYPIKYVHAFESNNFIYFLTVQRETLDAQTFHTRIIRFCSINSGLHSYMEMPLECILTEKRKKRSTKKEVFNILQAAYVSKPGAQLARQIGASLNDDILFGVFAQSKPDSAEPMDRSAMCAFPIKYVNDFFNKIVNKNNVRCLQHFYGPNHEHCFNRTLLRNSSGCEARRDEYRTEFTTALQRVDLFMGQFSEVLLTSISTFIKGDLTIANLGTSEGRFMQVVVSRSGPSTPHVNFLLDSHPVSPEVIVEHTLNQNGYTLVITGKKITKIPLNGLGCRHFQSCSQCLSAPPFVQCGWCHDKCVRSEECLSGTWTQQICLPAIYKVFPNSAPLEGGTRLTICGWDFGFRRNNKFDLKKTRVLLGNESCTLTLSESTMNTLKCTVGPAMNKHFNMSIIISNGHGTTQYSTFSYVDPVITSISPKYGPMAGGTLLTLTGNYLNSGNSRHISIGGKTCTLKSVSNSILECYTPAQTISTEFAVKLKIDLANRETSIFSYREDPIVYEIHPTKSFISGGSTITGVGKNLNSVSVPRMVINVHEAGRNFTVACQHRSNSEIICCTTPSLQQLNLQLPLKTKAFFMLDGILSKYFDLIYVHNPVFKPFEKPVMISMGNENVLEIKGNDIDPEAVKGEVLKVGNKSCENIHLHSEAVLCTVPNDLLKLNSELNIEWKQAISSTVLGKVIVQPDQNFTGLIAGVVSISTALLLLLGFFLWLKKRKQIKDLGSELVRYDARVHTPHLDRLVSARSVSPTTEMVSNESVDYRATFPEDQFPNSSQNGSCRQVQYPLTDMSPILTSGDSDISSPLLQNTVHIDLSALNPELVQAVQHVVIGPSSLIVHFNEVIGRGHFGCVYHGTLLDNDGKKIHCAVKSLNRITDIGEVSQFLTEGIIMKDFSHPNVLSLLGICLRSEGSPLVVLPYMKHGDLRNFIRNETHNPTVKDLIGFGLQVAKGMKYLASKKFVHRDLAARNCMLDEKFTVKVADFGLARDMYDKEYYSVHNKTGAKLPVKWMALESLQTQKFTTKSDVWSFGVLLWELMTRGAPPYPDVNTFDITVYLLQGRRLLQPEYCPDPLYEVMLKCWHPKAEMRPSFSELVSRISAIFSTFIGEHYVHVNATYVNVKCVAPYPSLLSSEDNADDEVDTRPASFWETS
As to the kind of experiment: Kinase inhibition assay (33P transfer), c-Met. The following applies: Table 2, kinase inhibition class; read-out: Met-1. In a few lines: as §2

The next test concerns the target T12, Zap-70 (Homo sapiens, UniProt P43403).
T12 construct: Kinases are expressed as either kinase domains or full length constructs; made in house
T12 sequence (P43403 1-619): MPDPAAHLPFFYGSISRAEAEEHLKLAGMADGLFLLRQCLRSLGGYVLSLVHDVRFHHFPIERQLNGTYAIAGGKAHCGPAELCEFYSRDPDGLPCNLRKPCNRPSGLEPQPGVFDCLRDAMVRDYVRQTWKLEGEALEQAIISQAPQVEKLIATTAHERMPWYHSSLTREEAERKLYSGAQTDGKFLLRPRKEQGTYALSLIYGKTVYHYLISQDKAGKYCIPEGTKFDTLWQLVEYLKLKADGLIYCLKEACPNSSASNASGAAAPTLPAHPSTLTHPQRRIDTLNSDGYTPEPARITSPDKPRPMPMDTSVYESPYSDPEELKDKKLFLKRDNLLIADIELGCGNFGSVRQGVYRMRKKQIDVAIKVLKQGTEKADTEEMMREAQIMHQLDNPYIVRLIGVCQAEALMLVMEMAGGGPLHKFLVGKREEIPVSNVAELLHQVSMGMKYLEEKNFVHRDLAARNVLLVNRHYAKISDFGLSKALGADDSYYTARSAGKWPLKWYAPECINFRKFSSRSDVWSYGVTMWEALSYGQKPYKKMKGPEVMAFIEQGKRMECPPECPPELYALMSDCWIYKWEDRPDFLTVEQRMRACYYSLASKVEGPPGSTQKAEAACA
As to the kind of experiment: Kinase inhibition assay (33P transfer), Zap-70. As to conditions: read-out: Zap-1. In a few lines:
as §1

Another test has as its target T13, IGFR-1 (Homo sapiens, UniProt P08069).
T13 construct: Kinases are expressed as either kinase domains or full length constructs; made in house
As to the kind of experiment: Kinase inhibition assay, IGFR-1 (Table 2). As to conditions: Table 2, kinase inhibition class.

The next test addresses T14, Lyn (Homo sapiens, UniProt P07948).
T14 construct: Kinases are expressed as either kinase domains or full length constructs; made in house
As to the kind of experiment: Kinase inhibition assay (33P transfer), Lyn. As to conditions: Table 6, Lyn-1 kinase inhibition class. An outline of the steps:
as §2

A further test addresses T15, Fyn (Homo sapiens, UniProt P06241).
T15 construct: Kinases are expressed as either kinase domains or full length constructs; made in house
As to the kind of experiment: Kinase inhibition assay (33P transfer), Fyn. The following applies: read-out: Fyn-1. In a few lines:
as §2

A further test addresses T16, Itk (Homo sapiens, UniProt Q08881).
T16 construct: Kinases are expressed as either kinase domains or full length constructs; made in house
T16 sequence (Q08881 1-620): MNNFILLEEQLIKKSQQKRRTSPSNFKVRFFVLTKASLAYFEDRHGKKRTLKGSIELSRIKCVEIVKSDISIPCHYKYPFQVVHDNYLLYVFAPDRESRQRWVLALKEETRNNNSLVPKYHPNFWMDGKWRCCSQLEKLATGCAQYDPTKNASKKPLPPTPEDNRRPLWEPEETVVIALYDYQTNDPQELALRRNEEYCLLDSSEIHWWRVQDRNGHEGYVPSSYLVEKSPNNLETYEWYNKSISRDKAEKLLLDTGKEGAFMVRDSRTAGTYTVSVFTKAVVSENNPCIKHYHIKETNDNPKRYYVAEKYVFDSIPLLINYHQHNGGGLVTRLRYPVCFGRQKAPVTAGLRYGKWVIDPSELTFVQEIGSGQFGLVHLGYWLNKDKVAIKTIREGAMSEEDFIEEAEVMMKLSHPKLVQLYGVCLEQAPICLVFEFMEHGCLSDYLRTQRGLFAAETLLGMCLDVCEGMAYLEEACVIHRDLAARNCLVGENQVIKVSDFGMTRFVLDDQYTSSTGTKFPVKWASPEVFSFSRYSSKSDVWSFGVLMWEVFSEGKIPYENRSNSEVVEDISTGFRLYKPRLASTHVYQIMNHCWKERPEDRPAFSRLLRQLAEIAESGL
The experiment in a line: Kinase inhibition assay (33P transfer), Itk. The following applies: read-out: Itk-1. In a few lines: as §2

The target in the next test is T17, Tek (Homo sapiens, UniProt Q02763).
T17 construct: Kinases are expressed as either kinase domains or full length constructs; made in house
As to the kind of experiment: Kinase inhibition assay (33P transfer), Tek. As to conditions: read-out: Tek-1. In a few lines:
as §2

A further test has as its target T18, ErbB4 (Homo sapiens, UniProt Q15303).
T18 construct: Kinases are expressed as either kinase domains or full length constructs; made in house
As to the kind of experiment: Kinase inhibition assay (33P transfer), ErbB4. The following applies: read-out: ErbB4-1.

Another test has as its target T19, ErbB2 (Homo sapiens, UniProt P04626).
T19 construct: Kinases are expressed as either kinase domains or full length constructs; made in house
The experiment in a line: Kinase inhibition assay (33P transfer), ErbB2. The following applies: read-out: ErbB2-2. In a few lines: as §2

T2 sequence (P07949 29-1114): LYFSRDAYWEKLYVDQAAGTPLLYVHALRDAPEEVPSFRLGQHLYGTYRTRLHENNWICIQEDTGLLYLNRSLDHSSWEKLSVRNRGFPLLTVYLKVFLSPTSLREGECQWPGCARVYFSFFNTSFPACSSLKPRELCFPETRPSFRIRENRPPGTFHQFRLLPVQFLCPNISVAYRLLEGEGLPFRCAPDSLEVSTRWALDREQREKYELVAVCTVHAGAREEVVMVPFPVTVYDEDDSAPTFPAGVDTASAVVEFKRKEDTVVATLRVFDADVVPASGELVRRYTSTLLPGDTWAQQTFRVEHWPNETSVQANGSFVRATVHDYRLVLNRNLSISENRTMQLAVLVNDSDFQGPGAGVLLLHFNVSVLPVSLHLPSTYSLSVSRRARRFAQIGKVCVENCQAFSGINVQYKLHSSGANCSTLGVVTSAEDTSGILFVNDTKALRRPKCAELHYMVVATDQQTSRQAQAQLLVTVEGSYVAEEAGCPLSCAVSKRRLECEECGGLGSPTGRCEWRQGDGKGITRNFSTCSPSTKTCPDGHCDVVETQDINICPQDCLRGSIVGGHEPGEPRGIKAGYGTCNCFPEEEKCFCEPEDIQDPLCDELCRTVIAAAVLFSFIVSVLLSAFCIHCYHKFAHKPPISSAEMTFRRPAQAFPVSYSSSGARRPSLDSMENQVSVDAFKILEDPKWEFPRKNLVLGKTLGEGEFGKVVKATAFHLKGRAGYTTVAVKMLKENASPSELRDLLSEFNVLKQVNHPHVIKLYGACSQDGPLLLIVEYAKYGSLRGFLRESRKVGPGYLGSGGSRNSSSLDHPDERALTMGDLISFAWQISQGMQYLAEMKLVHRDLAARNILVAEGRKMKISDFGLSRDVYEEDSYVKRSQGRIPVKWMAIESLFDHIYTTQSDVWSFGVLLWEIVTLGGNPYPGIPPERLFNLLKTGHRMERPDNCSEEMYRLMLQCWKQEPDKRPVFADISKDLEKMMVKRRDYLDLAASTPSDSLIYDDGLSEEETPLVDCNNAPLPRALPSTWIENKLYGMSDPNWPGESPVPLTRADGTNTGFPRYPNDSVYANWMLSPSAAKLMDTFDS
T6 sequence (P08631 whole entry, the tested form may be a part): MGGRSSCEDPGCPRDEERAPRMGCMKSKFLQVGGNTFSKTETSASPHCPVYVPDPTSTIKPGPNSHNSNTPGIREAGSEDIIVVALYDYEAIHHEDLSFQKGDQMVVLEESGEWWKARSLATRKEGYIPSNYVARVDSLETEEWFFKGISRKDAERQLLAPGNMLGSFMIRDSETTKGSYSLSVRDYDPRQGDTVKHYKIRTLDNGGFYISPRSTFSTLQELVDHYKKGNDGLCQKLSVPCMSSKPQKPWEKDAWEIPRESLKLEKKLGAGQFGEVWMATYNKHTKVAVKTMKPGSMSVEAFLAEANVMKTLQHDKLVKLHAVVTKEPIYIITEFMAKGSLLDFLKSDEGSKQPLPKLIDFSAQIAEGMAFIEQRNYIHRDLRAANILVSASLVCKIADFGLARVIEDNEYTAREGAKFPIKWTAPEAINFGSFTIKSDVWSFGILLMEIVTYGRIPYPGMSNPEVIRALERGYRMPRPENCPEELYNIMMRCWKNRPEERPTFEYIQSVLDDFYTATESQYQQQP

With `COc1cc(Nc2ncnc(-c3cccnc3NCc3ccc(F)cc3)n2)cc(OC)c1OC` [Compound 1088], the IC50 was > 9.73 µM at AKT; < 0.865 µM against Ret-1; > 9.73 µM against Src; < 0.865 µM on Kdr; < 0.865 µM on PDGFRB; > 9.73 µM at Hck-1. Also, the IC50 at Lck is 5.19 to 7.57 µM; at Flt-1, > 9.73 µM; at FGFR1 it was < 0.865 µM; at EGFR it was > 9.73 µM; at c-Met it was > 9.73 µM; at Zap-70, > 9.73 µM. For the same compound, the IC50 at IGFR-1, against Lyn, at Fyn, on Itk, on Tek and at ErbB4 was > 9.73 µM in each case. At ErbB2, the IC50 was > 9.73 µM.

For the compound `Nc1nc2ccccc2n1-c1ncnc(Nc2ccc(N3CCOCC3)cc2)n1` [Compound 479], the IC50 at AKT was > 11.6 µM; against Ret-1, 1.03 to 6.18 µM; against Src, > 11.6 µM; at Kdr, 1.03 to 6.18 µM; on PDGFRB, 6.18 to 9.01 µM; at Hck-1, > 11.6 µM. Also, the IC50 was 1.03 to 6.18 µM at Lck; 1.03 to 6.18 µM on Flt-1; 1.03 to 6.18 µM on FGFR1; 9.01 to 11.6 µM on EGFR; 6.18 to 9.01 µM on c-Met; > 11.6 µM at Zap-70. Besides, the IC50 was < 1.03 µM at IGFR-1; 9.01 to 11.6 µM against Lyn; > 11.6 µM on Fyn; 6.18 to 9.01 µM on Itk; > 11.6 µM on Tek; 9.01 to 11.6 µM at ErbB4. For the same compound, the IC50 at ErbB2 was 6.18 to 9.01 µM.

For `COc1cc(Nc2ncnc(-n3c(N[C@@H](CO)c4ccccc4)nc4ccccc43)n2)cc(OC)c1OC` [Compound 1036], the IC50 at AKT is > 8.76 µM; against Ret-1, < 0.779 µM; at Src it was 0.779 to 4.67 µM; on Kdr it was < 0.779 µM; at PDGFRB, < 0.779 µM; at Hck-1, > 8.76 µM. The IC50 at Lck is < 0.779 µM; against Flt-1 it was < 0.779 µM; on FGFR1, < 0.779 µM; on EGFR, 0.779 to 4.67 µM; at c-Met it was > 8.76 µM; on Zap-70, > 8.76 µM. In addition, the IC50 at IGFR-1 is 6.82 to 8.76 µM; against Lyn, < 0.779 µM; on Fyn it was 0.779 to 4.67 µM; at Itk, > 8.76 µM; on Tek, 4.67 to 6.82 µM; at ErbB4 it was 4.67 to 6.82 µM. On ErbB2, the IC50 fell in the range of 0.779 to 4.67 µM.

As to `COc1cc(Nc2ncnc(-n3c(NCc4ccccc4C)nc4ccccc43)n2)cc(OC)c1OC` [Compound 511], the IC50 on AKT is > 9.04 µM; at Ret-1 it was < 0.804 µM; against Src it was > 9.04 µM; at Kdr, < 0.804 µM; at PDGFRB, < 0.804 µM; at Hck-1 it was > 9.04 µM. Further, the IC50 at Lck was < 0.804 µM; on Flt-1, < 0.804 µM; on FGFR1, < 0.804 µM; on EGFR it was > 9.04 µM; at c-Met it was > 9.04 µM; on Zap-70, > 9.04 µM. Moreover, the IC50 on IGFR-1 is > 9.04 µM; at Lyn, 0.804 to 4.82 µM; on Fyn, > 9.04 µM; at Itk, > 9.04 µM; on Tek it was 7.03 to 9.04 µM; at ErbB4, 0.804 to 4.82 µM. Moreover, the IC50 at ErbB2 is 7.03 to 9.04 µM.
